Results reported in the supplement of paper PMC10132981, “Formate overflow drives toxic folate trapping in MTHFD1 inhibited cancer cells” (Nature Metabolism, 2023).
± gives the standard deviation of the averaged measurements.

System: SW620
Assay: cell viability relative to vehicle (resazurin, 96 h); higher = more viable
Description: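 SW620 WT or MTHFD2-/- cells were treated for 96 h with a compound dilution series (log10 M) in RPMI with normal or dialysed FBS. Viability was read by resazurin and is given as % of vehicle.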

CN(Cc1cnc2nc(N)nc(N)c2n1)c1ccc(C(=O)N[C@@H](CCC(=O)O)C(=O)O)cc1 [methotrexate]
Details	cell viability [%]
log10 compound concentration (M): -6.43136, supplement / serum: Hypoxanthine + AICAr 30μM, base medium: RPMI + dialysed FBS	5.47 ± 0.35
log10 compound concentration (M): -6.43136, supplement / serum: Hypoxanthine + AICAr 50μM, base medium: RPMI + dialysed FBS	7.05 ± 1.2
log10 compound concentration (M): -6.43136, supplement / serum: Hypoxanthine + AICAr 100μM, base medium: RPMI + dialysed FBS	6.81 ± 0.79
log10 compound concentration (M): -6.43136, supplement / serum: Hypoxanthine, base medium: RPMI + dialysed FBS	5.56 ± 1.6
log10 compound concentration (M): -6.43136, supplement / serum: RPMI + Dialyzed FBS + 50μM Hypoxanthine, base medium: RPMI-1640	7.77 ± 1.5
log10 compound concentration (M): -6.43136, supplement / serum: RPMI + Dialyzed FBS, base medium: RPMI-1640	4.63 ± 0.63
log10 compound concentration (M): -6.43136, supplement / serum: RPMI + Normal FBS, base medium: RPMI-1640	17 ± 3.4
log10 compound concentration (M): -6.43136, supplement / serum: Vehicle, base medium: RPMI + dialysed FBS	4.16 ± 1.3
log10 compound concentration (M): -6.90849, supplement / serum: Hypoxanthine + AICAr 10μM, base medium: RPMI + dialysed FBS	7.03 ± 0.69
log10 compound concentration (M): -6.90849, supplement / serum: Hypoxanthine + AICAr 30μM, base medium: RPMI + dialysed FBS	5.61 ± 0.69
log10 compound concentration (M): -6.90849, supplement / serum: Hypoxanthine + AICAr 50μM, base medium: RPMI + dialysed FBS	6.93 ± 1.5
log10 compound concentration (M): -6.90849, supplement / serum: Hypoxanthine + AICAr 100μM, base medium: RPMI + dialysed FBS	6.51 ± 1.3
log10 compound concentration (M): -6.90849, supplement / serum: Hypoxanthine, base medium: RPMI + dialysed FBS	5.78 ± 0.88
log10 compound concentration (M): -6.90849, supplement / serum: RPMI + Dialyzed FBS + 50μM Hypoxanthine, base medium: RPMI-1640	8.66 ± 0.88
log10 compound concentration (M): -6.90849, supplement / serum: RPMI + Dialyzed FBS, base medium: RPMI-1640	5.1 ± 0.99
log10 compound concentration (M): -6.90849, supplement / serum: RPMI + Normal FBS, base medium: RPMI-1640	20.5 ± 3.8
log10 compound concentration (M): -6.90849, supplement / serum: Vehicle, base medium: RPMI + dialysed FBS	4.6 ± 0.73
log10 compound concentration (M): -7.38561, supplement / serum: Hypoxanthine + AICAr 10μM, base medium: RPMI + dialysed FBS	15.3 ± 1.1
log10 compound concentration (M): -7.38561, supplement / serum: Hypoxanthine + AICAr 30μM, base medium: RPMI + dialysed FBS	7.88 ± 2.1
log10 compound concentration (M): -7.38561, supplement / serum: Hypoxanthine + AICAr 50μM, base medium: RPMI + dialysed FBS	10.8 ± 2.8
log10 compound concentration (M): -7.38561, supplement / serum: Hypoxanthine + AICAr 100μM, base medium: RPMI + dialysed FBS	9.102 ± 0.063
log10 compound concentration (M): -7.38561, supplement / serum: Hypoxanthine, base medium: RPMI + dialysed FBS	14.7 ± 1.8
log10 compound concentration (M): -7.38561, supplement / serum: RPMI + Dialyzed FBS + 50μM Hypoxanthine, base medium: RPMI-1640	24.7 ± 5
log10 compound concentration (M): -7.38561, supplement / serum: RPMI + Dialyzed FBS, base medium: RPMI-1640	5.71 ± 1.2
log10 compound concentration (M): -7.38561, supplement / serum: RPMI + Normal FBS, base medium: RPMI-1640	42.8 ± 6.6
log10 compound concentration (M): -7.38561, supplement / serum: Vehicle, base medium: RPMI + dialysed FBS	4.77 ± 1.2
log10 compound concentration (M): -7.86273, supplement / serum: Hypoxanthine + AICAr 10μM, base medium: RPMI + dialysed FBS	103 ± 12
log10 compound concentration (M): -7.86273, supplement / serum: Hypoxanthine + AICAr 30μM, base medium: RPMI + dialysed FBS	75.9 ± 16
log10 compound concentration (M): -7.86273, supplement / serum: Hypoxanthine + AICAr 50μM, base medium: RPMI + dialysed FBS	65.1 ± 3
log10 compound concentration (M): -7.86273, supplement / serum: Hypoxanthine + AICAr 100μM, base medium: RPMI + dialysed FBS	39.1 ± 11
log10 compound concentration (M): -7.86273, supplement / serum: Hypoxanthine, base medium: RPMI + dialysed FBS	92.6 ± 16
log10 compound concentration (M): -7.86273, supplement / serum: RPMI + Dialyzed FBS + 50μM Hypoxanthine, base medium: RPMI-1640	85 ± 1.5
log10 compound concentration (M): -7.86273, supplement / serum: RPMI + Dialyzed FBS, base medium: RPMI-1640	15.5 ± 3.5
log10 compound concentration (M): -7.86273, supplement / serum: RPMI + Normal FBS, base medium: RPMI-1640	53.8 ± 9.3
log10 compound concentration (M): -7.86273, supplement / serum: Vehicle, base medium: RPMI + dialysed FBS	10.7 ± 0.97
log10 compound concentration (M): -8.33985, supplement / serum: Hypoxanthine + AICAr 10μM, base medium: RPMI + dialysed FBS	117 ± 7.8
log10 compound concentration (M): -8.33985, supplement / serum: Hypoxanthine + AICAr 30μM, base medium: RPMI + dialysed FBS	93.6 ± 14
log10 compound concentration (M): -8.33985, supplement / serum: Hypoxanthine + AICAr 50μM, base medium: RPMI + dialysed FBS	119.7 ± 1
log10 compound concentration (M): -8.33985, supplement / serum: Hypoxanthine + AICAr 100μM, base medium: RPMI + dialysed FBS	92.9 ± 8.4
log10 compound concentration (M): -8.33985, supplement / serum: Hypoxanthine, base medium: RPMI + dialysed FBS	99.3 ± 9
log10 compound concentration (M): -8.33985, supplement / serum: RPMI + Dialyzed FBS + 50μM Hypoxanthine, base medium: RPMI-1640	99.18 ± 0.23
log10 compound concentration (M): -8.33985, supplement / serum: RPMI + Dialyzed FBS, base medium: RPMI-1640	72.4 ± 12
log10 compound concentration (M): -8.33985, supplement / serum: RPMI + Normal FBS, base medium: RPMI-1640	95.4 ± 29
log10 compound concentration (M): -8.33985, supplement / serum: Vehicle, base medium: RPMI + dialysed FBS	109 ± 8.1
log10 compound concentration (M): -8.81697, supplement / serum: Hypoxanthine + AICAr 10μM, base medium: RPMI + dialysed FBS	117 ± 3
log10 compound concentration (M): -8.81697, supplement / serum: Hypoxanthine + AICAr 30μM, base medium: RPMI + dialysed FBS	98.4 ± 1.9
log10 compound concentration (M): -8.81697, supplement / serum: Hypoxanthine + AICAr 50μM, base medium: RPMI + dialysed FBS	108 ± 4.7
log10 compound concentration (M): -8.81697, supplement / serum: Hypoxanthine + AICAr 100μM, base medium: RPMI + dialysed FBS	90.3 ± 4.8
log10 compound concentration (M): -8.81697, supplement / serum: Hypoxanthine, base medium: RPMI + dialysed FBS	100 ± 13
log10 compound concentration (M): -8.81697, supplement / serum: RPMI + Dialyzed FBS + 50μM Hypoxanthine, base medium: RPMI-1640	102 ± 6.8
log10 compound concentration (M): -8.81697, supplement / serum: RPMI + Dialyzed FBS, base medium: RPMI-1640	86.4 ± 12
log10 compound concentration (M): -8.81697, supplement / serum: RPMI + Normal FBS, base medium: RPMI-1640	97.4 ± 12
log10 compound concentration (M): -8.81697, supplement / serum: Vehicle, base medium: RPMI + dialysed FBS	119 ± 1.7
log10 compound concentration (M): -9.29409, supplement / serum: 50 μM Hypoxanthine + 50 μM Thymidine, base medium: RPMI + dialysed FBS	93.5 ± 8.8
log10 compound concentration (M): -9.29409, supplement / serum: Hypoxanthine + AICAr 10μM, base medium: RPMI + dialysed FBS	118 ± 2
log10 compound concentration (M): -9.29409, supplement / serum: Hypoxanthine + AICAr 30μM, base medium: RPMI + dialysed FBS	105 ± 3
log10 compound concentration (M): -9.29409, supplement / serum: Hypoxanthine + AICAr 50μM, base medium: RPMI + dialysed FBS	113 ± 6.1
log10 compound concentration (M): -9.29409, supplement / serum: Hypoxanthine + AICAr 100μM, base medium: RPMI + dialysed FBS	102 ± 7.3
log10 compound concentration (M): -9.29409, supplement / serum: Hypoxanthine, base medium: RPMI + dialysed FBS	97.3 ± 9.6
log10 compound concentration (M): -9.29409, supplement / serum: RPMI + Dialyzed FBS + 50μM Hypoxanthine, base medium: RPMI-1640	96.1 ± 4.9
log10 compound concentration (M): -9.29409, supplement / serum: RPMI + Dialyzed FBS, base medium: RPMI-1640	98.9 ± 2.7
log10 compound concentration (M): -9.29409, supplement / serum: RPMI + Normal FBS, base medium: RPMI-1640	99.1 ± 21
log10 compound concentration (M): -9.29409, supplement / serum: Vehicle, base medium: RPMI + dialysed FBS	112 ± 5.9
log10 compound concentration (M): -9.77121, supplement / serum: Hypoxanthine + AICAr 10μM, base medium: RPMI + dialysed FBS	112.06 ± 0.09
log10 compound concentration (M): -9.77121, supplement / serum: Hypoxanthine + AICAr 30μM, base medium: RPMI + dialysed FBS	94.8 ± 17
log10 compound concentration (M): -9.77121, supplement / serum: Hypoxanthine + AICAr 50μM, base medium: RPMI + dialysed FBS	120.1 ± 1.1
log10 compound concentration (M): -9.77121, supplement / serum: Hypoxanthine + AICAr 100μM, base medium: RPMI + dialysed FBS	98.9 ± 8.1
log10 compound concentration (M): -9.77121, supplement / serum: Hypoxanthine, base medium: RPMI + dialysed FBS	101 ± 21
log10 compound concentration (M): -9.77121, supplement / serum: RPMI + Dialyzed FBS + 50μM Hypoxanthine, base medium: RPMI-1640	94.8 ± 2
log10 compound concentration (M): -9.77121, supplement / serum: RPMI + Dialyzed FBS, base medium: RPMI-1640	96.3 ± 3.3
log10 compound concentration (M): -9.77121, supplement / serum: RPMI + Normal FBS, base medium: RPMI-1640	88.1 ± 15
log10 compound concentration (M): -9.77121, supplement / serum: Vehicle, base medium: RPMI + dialysed FBS	114 ± 5.1
